# Data taken from patent US20140348819A1, “Methods of Treating Cancer” (Dana-Farber Cancer Institute, Inc., priority 2011, published 2014).
# Several values for one entry are separate records, joined by “and”; a condition that tells them apart may be missing. Equal entries are not always repeated.
# Tests used:
# [1] = test system: V600E BRAF melanoma cell lines; assay: HGF-induced / stromal resistance of melanoma cell lines to BRAF, MEK and AKT inhibitors and its reversal; format: cell-based, human; conditions: V600E BRAF melanoma cell lines with recombinant HGF
# DLD-1 cells = assay: Crizotinib synergistic effect with BRAFi in colorectal cells (FIG. 9); format: cell-based, human
# From the text: The DLD-1 cells do harbor the BRAF activating mutation V600E but are not sensitive at all to BRAF inhibition. They actually grow faster under BRAFi.
# [2] = test system: BRAF V600E melanoma patients; assay: Clinical response of BRAF V600E melanoma patients to BRAFi or BRAFi + MEKi (Table 7); format: in vivo, human; conditions: one line per patient
# pERK/pAKT = assay: High-throughput western analysis of pERK/pAKT re-activation by RTK ligands under BRAFi/MEKi; format: cell-based, human; conditions: under BRAFi (PLX4720); after 1 hour of cytokine treatment; six V600E BRAF melanoma cell lines
# Protocol: FIG. 23B is a western blot showing the activation of AKT (phosphorylated AKT, S473) after 1 hour and 24 hours after treatment with HGF, IGF-1 (IGF), and Insulin (INS) in the presence of BRAFi (PLX4720, 2 μM). FIG. 23C is a western blot showing the effect of HGF (25 ng/mL) on MAPK and PI3K/AKT pathway activation (pRAF1, pMEK, pERK, pAKT and pMET) in melanoma cell lines after 24 hours of treatment with 2 μM BRAFi (PLX4720) or 2 μM MEKi (PD184352).
# To understand why, of all the RTKs tested, only HGF could induce such a unique primary resistance phenotype, a high-throughput western analysis was used to test the ability of all 22 RTK ligands to re-activate pERK/pAKT under BRAFi (PLX4720) treatment in six V600E BRAF melanoma cell lines. […] However, whereas the activation of both ERK and AKT by HGF under PLX4720 treatment was long lasting, the activation of either ERK or AKT by the above cytokines was only transient and thus could not confer resistance to the melanoma cell lines.
# [3] = test system: six V600E BRAF melanoma cell lines; assay: Screening of recombinant RTK ligands for ability to confer resistance to BRAFi (PLX4720) or MEKi (PD184352) (Table 4); format: cell-based, human; design: ability of recombinant RTK ligand to confer resistance / ability of recombinant RTK ligand to confer resistance (screening value): scale not given here
# Procedure, shortened: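 Resistance to BRAFi (PLX4720) or MEKi (PD184352) was tested in six V600E BRAF melanoma lines given one of 22 recombinant RTK ligands. For a subset of RTKs, activation was checked by high-throughput tyrosine kinase phosphorylation profiling and western blot.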
compound,measurement,setting,value
C[C@@H](Oc1cc(-c2cnn(C3CCNCC3)c2)cnc1N)c1c(Cl)ccc(F)c1Cl [Crizotinib],reversal of HGF-conferred BRAF/MEK inhibitor resistance,[1],directly reversed
same,synergistic effect of Crizotinib,"DLD-1 cells; DLD-1 cells, FIG. 9B",no substantial synergistic effect
same,sensitivity of colorectal cancer cell line to BRAFi on addition of Crizotinib,"DLD-1 cells; cell line printed as DLD-1, BRAF V600E",restores full sensitivity
CC(C)(C)c1nc(-c2cccc(NS(=O)(=O)c3c(F)cccc3F)c2F)c(-c2ccnc(N)n2)s1 [GSK2118436],Response (Max),[2],9% and 40%
same,Time to progression (months),[2],3.5 months and 2.5 months
CCCS(=O)(=O)Nc1ccc(F)c(C(=O)c2c[nH]c3ncc(-c4ccc(Cl)cc4)cc23)c1F [Vemurafenib],Response (Max),[2],90% and 72% (2×) and 50% and 100% and 25% and 23% and 22% and 10% and 0% (4×) and 54% and 34% and 20% and 56% and 27%
same,"Response (Max), category",[2],POD
same,Time to progression (months),[2],7 months and 3.2 months and 5 months (2×) and 3 months and 12.4 months and 8 months and 5.4 months and 4.5 months and 8.5 months and 6.0 months and 7.3 months and 3.5 months and 6.5 months and 1.3 months
"EGF: RTK ligand (EGFR), cytokine tested",re-activation of pERK/pAKT,pERK/pAKT,reactivate only ERK
same,ability of recombinant RTK ligand to confer resistance,"[3]; A2058, PD184352 - 1 uM, ligand 0.4 ng/ml",1.05
same,ability of recombinant RTK ligand to confer resistance,"[3]; A2058, PD184352 - 1 uM, ligand 1.6 ng/ml",1.04
same,ability of recombinant RTK ligand to confer resistance,"[3]; A2058, PD184352 - 1 uM, ligand 6.25 ng/ml",0.95
same,ability of recombinant RTK ligand to confer resistance,"[3]; A2058, PD184352 - 1 uM, ligand 25 ng/ml",0.96
same,ability of recombinant RTK ligand to confer resistance,"[3]; A2058, PD184352 - 1 uM, ligand 100 ng/ml",1.00
same,ability of recombinant RTK ligand to confer resistance,"[3]; A2058, PLX4720 - 2 uM, ligand 0.4 ng/ml",1.02
same,ability of recombinant RTK ligand to confer resistance,"[3]; A2058, PLX4720 - 2 uM, ligand 1.6 ng/ml",1.03
same,ability of recombinant RTK ligand to confer resistance,"[3]; A2058, PLX4720 - 2 uM, ligand 6.25 ng/ml",0.93
same,ability of recombinant RTK ligand to confer resistance,"[3]; A2058, PLX4720 - 2 uM, ligand 25 ng/ml",0.97
same,ability of recombinant RTK ligand to confer resistance,"[3]; A2058, PLX4720 - 2 uM, ligand 100 ng/ml",0.99
same,ability of recombinant RTK ligand to confer resistance,"[3]; C32, PD184352 - 1 uM, ligand 0.4 ng/ml",1.01
same,ability of recombinant RTK ligand to confer resistance,"[3]; C32, PD184352 - 1 uM, ligand 1.6 ng/ml",0.97
same,ability of recombinant RTK ligand to confer resistance,"[3]; C32, PD184352 - 1 uM, ligand 6.25 ng/ml",1.06
same,ability of recombinant RTK ligand to confer resistance,"[3]; C32, PD184352 - 1 uM, ligand 25 ng/ml",1.01
same,ability of recombinant RTK ligand to confer resistance,"[3]; C32, PD184352 - 1 uM, ligand 100 ng/ml",0.99
same,ability of recombinant RTK ligand to confer resistance,"[3]; C32, PLX4720 - 2 uM, ligand 0.4 ng/ml",1.06
same,ability of recombinant RTK ligand to confer resistance,"[3]; C32, PLX4720 - 2 uM, ligand 1.6 ng/ml",0.94
same,ability of recombinant RTK ligand to confer resistance,"[3]; C32, PLX4720 - 2 uM, ligand 6.25 ng/ml",1.03
same,ability of recombinant RTK ligand to confer resistance,"[3]; C32, PLX4720 - 2 uM, ligand 25 ng/ml",0.93
same,ability of recombinant RTK ligand to confer resistance,"[3]; C32, PLX4720 - 2 uM, ligand 100 ng/ml",0.99
same,ability of recombinant RTK ligand to confer resistance,"[3]; Colo 829, PD184352 - 1 uM, ligand 0.4 ng/ml",0.97
same,ability of recombinant RTK ligand to confer resistance,"[3]; Colo 829, PD184352 - 1 uM, ligand 1.6 ng/ml",0.96
same,ability of recombinant RTK ligand to confer resistance,"[3]; Colo 829, PD184352 - 1 uM, ligand 6.25 ng/ml",0.99
same,ability of recombinant RTK ligand to confer resistance,"[3]; Colo 829, PD184352 - 1 uM, ligand 25 ng/ml",0.94
same,ability of recombinant RTK ligand to confer resistance,"[3]; Colo 829, PD184352 - 1 uM, ligand 100 ng/ml",1.00
same,ability of recombinant RTK ligand to confer resistance,"[3]; Colo 829, PLX4720 - 2 uM, ligand 0.4 ng/ml",1.02
same,ability of recombinant RTK ligand to confer resistance,"[3]; Colo 829, PLX4720 - 2 uM, ligand 1.6 ng/ml",1.00
same,ability of recombinant RTK ligand to confer resistance,"[3]; Colo 829, PLX4720 - 2 uM, ligand 6.25 ng/ml",1.00
same,ability of recombinant RTK ligand to confer resistance,"[3]; Colo 829, PLX4720 - 2 uM, ligand 25 ng/ml",0.97
same,ability of recombinant RTK ligand to confer resistance,"[3]; Colo 829, PLX4720 - 2 uM, ligand 100 ng/ml",1.01
same,ability of recombinant RTK ligand to confer resistance,"[3]; G-361, PD184352 - 1 uM, ligand 0.4 ng/ml",1.01
same,ability of recombinant RTK ligand to confer resistance,"[3]; G-361, PD184352 - 1 uM, ligand 1.6 ng/ml",0.90
same,ability of recombinant RTK ligand to confer resistance,"[3]; G-361, PD184352 - 1 uM, ligand 6.25 ng/ml",0.97
same,ability of recombinant RTK ligand to confer resistance,"[3]; G-361, PD184352 - 1 uM, ligand 25 ng/ml",1.00
same,ability of recombinant RTK ligand to confer resistance,"[3]; G-361, PD184352 - 1 uM, ligand 100 ng/ml",0.96
same,ability of recombinant RTK ligand to confer resistance,"[3]; G-361, PLX4720 - 2 uM, ligand 0.4 ng/ml",0.98
same,ability of recombinant RTK ligand to confer resistance,"[3]; G-361, PLX4720 - 2 uM, ligand 1.6 ng/ml",0.90
same,ability of recombinant RTK ligand to confer resistance,"[3]; G-361, PLX4720 - 2 uM, ligand 6.25 ng/ml",0.94
same,ability of recombinant RTK ligand to confer resistance,"[3]; G-361, PLX4720 - 2 uM, ligand 25 ng/ml",0.99
same,ability of recombinant RTK ligand to confer resistance,"[3]; G-361, PLX4720 - 2 uM, ligand 100 ng/ml",0.93
same,ability of recombinant RTK ligand to confer resistance,"[3]; SK-MEL-5, PD184352 - 1 uM, ligand 0.4 ng/ml",0.99
same,ability of recombinant RTK ligand to confer resistance,"[3]; SK-MEL-5, PD184352 - 1 uM, ligand 1.6 ng/ml",1.04
same,ability of recombinant RTK ligand to confer resistance,"[3]; SK-MEL-5, PD184352 - 1 uM, ligand 6.25 ng/ml",1.08
same,ability of recombinant RTK ligand to confer resistance,"[3]; SK-MEL-5, PD184352 - 1 uM, ligand 25 ng/ml",1.11
same,ability of recombinant RTK ligand to confer resistance,"[3]; SK-MEL-5, PD184352 - 1 uM, ligand 100 ng/ml",1.01
same,ability of recombinant RTK ligand to confer resistance,"[3]; SK-MEL-5, PLX4720 - 2 uM, ligand 0.4 ng/ml",1.08
same,ability of recombinant RTK ligand to confer resistance,"[3]; SK-MEL-5, PLX4720 - 2 uM, ligand 1.6 ng/ml",1.15
same,ability of recombinant RTK ligand to confer resistance,"[3]; SK-MEL-5, PLX4720 - 2 uM, ligand 6.25 ng/ml",1.19
same,ability of recombinant RTK ligand to confer resistance,"[3]; SK-MEL-5, PLX4720 - 2 uM, ligand 25 ng/ml",1.22
same,ability of recombinant RTK ligand to confer resistance,"[3]; SK-MEL-5, PLX4720 - 2 uM, ligand 100 ng/ml",1.11
same,ability of recombinant RTK ligand to confer resistance,"[3]; SK-MEL-28, PD184352 - 1 uM, ligand 0.4 ng/ml",1.03
same,ability of recombinant RTK ligand to confer resistance,"[3]; SK-MEL-28, PD184352 - 1 uM, ligand 1.6 ng/ml",0.97
same,ability of recombinant RTK ligand to confer resistance,"[3]; SK-MEL-28, PD184352 - 1 uM, ligand 6.25 ng/ml",0.93
same,ability of recombinant RTK ligand to confer resistance,"[3]; SK-MEL-28, PD184352 - 1 uM, ligand 25 ng/ml",0.97
same,ability of recombinant RTK ligand to confer resistance,"[3]; SK-MEL-28, PD184352 - 1 uM, ligand 100 ng/ml",1.05
same,ability of recombinant RTK ligand to confer resistance,"[3]; SK-MEL-28, PLX4720 - 2 uM, ligand 0.4 ng/ml",1.00
same,ability of recombinant RTK ligand to confer resistance,"[3]; SK-MEL-28, PLX4720 - 2 uM, ligand 1.6 ng/ml",1.01
same,ability of recombinant RTK ligand to confer resistance,"[3]; SK-MEL-28, PLX4720 - 2 uM, ligand 6.25 ng/ml",0.97
same,ability of recombinant RTK ligand to confer resistance,"[3]; SK-MEL-28, PLX4720 - 2 uM, ligand 25 ng/ml",0.94
same,ability of recombinant RTK ligand to confer resistance,"[3]; SK-MEL-28, PLX4720 - 2 uM, ligand 100 ng/ml",1.03
"FGF-1: RTK ligand (FGFR), cytokine tested",re-activation of pERK/pAKT,pERK/pAKT,reactivate only ERK
IGF-1: RTK ligand of IGF-1R,re-activation of pERK/pAKT,pERK/pAKT,only reactivate AKT
same,ability of RTK ligand to confer primary resistance,"[3]; six V600E BRAF melanoma cell lines, BRAFi (PLX4720) or MEKi (PD184352)",not shown to induce primary resistance
